Measured values published in US10662214B2, “Compound of 4′-thionucleoside, as well as preparation method therefor, pharmaceutical composition thereof and application thereof” (Sichuan Kelun-Biotech Biopharmaceutical Co., Ltd., priority 2015, dated 2020).

What was measured:
[1] = tested on: pancreatic cancer cell BxPC-3; assay: CCK-8 inhibition of proliferation, BxPC-3; format: cell-based, human; settings: for inhibitory effect on pancreatic cancer cell BxPC-3 (in words): FIG. 1: 5-10000 nM; for IC50: Homo sapiens, BXPC-3, CCK-8, 72 h incubation
Protocol: (§1) The tumor cell lines employed in the present experiment were gastric cancer cell NCI-N87 (obtained from Guangzhou Jennio Biological Technology Co., Ltd.), colorectal cancer cell HCT-116 (obtained from Chengdu Center for Safety Evaluation of Drugs), colorectal cancer cell HCT-15 and pancreatic cancer cell BxPC-3 (both obtained from ATCC, US).
(§2) Each of the cell lines is cultured in a corresponding culture medium (RPMI-1640, IMDM and L-15 culture medium (manufacturer: Gibco)) supplemented with 10% heat inactivated Fetal Bovine Serum (manufacturer: Sigma), in an incubator at 37° C. and 5% CO2.
(§3) For each type of tumor cells, a blank group, a vehicle group (containing 1‰ DMSO) and 8 groups with a test compound at concentrations of 5 nM, 10 nM, 50 nM, 100 nM, 500 nM, 1000 nM, 5000 nM, and 10000 nM (with each concentration in triplicate) were set.
(§4) Appropriate amounts of test compounds were weighted, and dissolved in DMSO (cell culture grade, Sigma) to prepare stock solutions of various concentration gradients according to desired concentrations. During incubation, they were diluted by 1000 times as necessary, and incubation solutions with various drug concentrations were prepared (compound stock solution:medium containing 2% FBS=1:1000).
(§5) The experiment was performed according to a CCK-8 method as described below. Cancer cells to be tested were seeded in a 96-well culture plate at a concentration of 5˜10×10^4/mL (100 μL/well), followed by incubation at 37° C. and 5% CO2 for 24 h. The medium was discarded, and incubation solutions with different drug concentrations (200 μL) were respectively added to each well, and the cells were further incubated for 72 h. After the incubation, a CCK-8 solution (20 μL/well) was added to each well to be tested, and the incubation was continued for 4 h in the incubator. OD values at two wavelengths (Detection wavelength: 450 nm, and reference wavelength: 650 nm) were determined on a multifunctional fully-automatic microplate reader.
(§6) The inhibitory rate of tumor cell growth was calculated according to the following formula: Inhibitory rate=[(ODvehicle−ODblank)−(ODdrug−ODblank)]/(ODvehicle−ODblank)*100%
(§7) Based on the inhibitory rate, a concentration-inhibitory rate curve was fit using GraphPad prism 5.0 software, and IC50 was calculated.

[2] = tested on: gastric cancer cell NCI-N87; assay: CCK-8 inhibition of proliferation, NCI-N87; format: cell-based, human; settings: for inhibitory effect on gastric cancer cell NCI-N87 (in words): FIG. 1: 5-10000 nM; for IC50: Homo sapiens, NCI-N87, CCK-8, 72 h incubation
Protocol: as §1, §2, §3, §4, §5, §6, §7

[3] = tested on: colorectal cancer cell HCT-15; assay: CCK-8 inhibition of proliferation, HCT-15; format: cell-based, human; settings: for inhibitory effect on colorectal cancer cell HCT-15 (in words): FIG. 1: 5-10000 nM; for IC50: Homo sapiens, HCT-15, CCK-8, 72 h incubation
Protocol: as §1, §2, §3, §4, §5, §6, §7

[4] = Intravenous toxicity test in mice (administration for 7 days); format: in vivo; settings: mouse, in vivo, iv
Text: This test was used to investigate the toxic reactions after intravenous administration of compound C8 to normal KM mice for 7 consecutive days.
KM mice passing the quarantine control were randomized into 4 groups (3 mice/gender/group). The test compound and vehicle control were formulated according to Experimental example 2. The mortality, appearance, behavior, mental status, secretion and excreta etc. of the animals were observed every day for 7 consecutive days after the administration, and the animals were anatomized on day 8.

[5] = Oral toxicity test in mice (administration for 7 days); format: in vivo; settings: once per day for 7 days
Protocol: Normal Male and female Kunming mice (SPF grade, obtained from Laboratory Animal Center in Sichuan Academy of Chinese Medicine Science) were randomized by weight into groups. The test compound and vehicle control were formulated according to Experimental example 2. The dosage volume was 10 mL/kg, and the administration was performed by oral gavage, once per day for 7 consecutive days.

| Structure (SMILES) | inhibitory effect on pancreatic cancer cell BxPC-3 (in words) [1] | IC50 [1] [nM] | inhibitory effect on gastric cancer cell NCI-N87 (in words) [2] | IC50 [2] [nM] | inhibitory effect on colorectal cancer cell HCT-15 (in words) [3] | IC50 [3] [nM] | body weight decrease on day 8, female mice [4] [%] | body weight decrease on day 8, male mice [4] [%] | symptoms observed on day 8 ([4]; 20 mg/kg) | dosage at which death of animals occurred ([5]; oral gavage) | Results: mortality (3 Male + 3 Female) ([5]; ~77 μmol/kg oral gavage) |
| --- | --- | --- | --- | --- | --- | --- | --- | --- | --- | --- | --- |
| CC(C)OC(=O)[C@H](C)NP(=O)(OC[C@H]1S[C@@H](n2ccc(N)nc2=O)[C@@H](F)[C@@H]1O)Oc1ccc2c(c1)OCC2 (stereo partly drawn) [Compound C18, (S)-isopropyl 2-(((((2R,3S,4S,5R)-5-(4-amino-2-oxopyrimidin-1(2H)-yl)-4-fluoro-3-hydroxytetrahydrothiophen-2-yl)methoxy)((2,3-dihydrobenzofuran-6-yl)oxy)phosphoryl)amino)propanoate] | excellent inhibitory effect | 2740 | – | – | – | – | – | – | – | – | – |
| C[C@H](NP(=O)(OC[C@H]1S[C@@H](n2ccc(N)nc2=O)[C@@H](F)[C@@H]1O)Oc1ccccc1)C(=O)OCc1ccccc1 (stereo partly drawn) [Compound C2, (S)-benzyl 2-(((((2R,3S,4S,5R)-5-(4-amino-2-oxopyrimidin-1(2H)-yl)-4-fluoro-3-hydroxytetrahydrothiophen-2-yl)methoxy)(phenoxy)phosphoryl)amino)propanoate] | excellent inhibitory effects | 1280 | excellent inhibitory effects | 250 | excellent inhibitory effects | 2970 | – | – | – | – | – |
| CC(C)OC(=O)[C@H](C)N[P@@](=O)(OC[C@H]1S[C@@H](n2ccc(N)nc2=O)[C@@H](F)[C@@H]1O)Oc1ccc2c(c1)OCO2 [Compound C13, (S)-isopropyl 2-(((R)-(((2R,3S,4S,5R)-5-(4-amino-2-oxopyrimidin-1 (2H)-yl)-4-fluoro-3-hydroxytetrahydrothiophen-2-yl)methoxy)(benzo[d][1,3]dioxol-5-yloxy)phosphoryl)amino)propanoate] | – | – | excellent inhibitory effect | 550 | – | – | – | – | – | – | – |
| CC(C)OC(=O)[C@H](C)NP(=O)(OC[C@H]1S[C@@H](n2ccc(N)nc2=O)[C@@H](F)[C@@H]1O)Oc1cccc2c1OCCO2 (stereo partly drawn) [Compound C16, (S)-isopropyl 2-(((((2R,3S,4S,5R)-5-(4-amino-2-oxopyrimidin-1(2H)-yl)-4-fluoro-3-hydroxytetrahydrothiophen-2-yl)methoxy)((2,3-dihydrobenzo[b][1,4]dioxin-5-yl)oxy)phosphoryl)amino)propanoate] | excellent inhibitory effects | 1150 | excellent inhibitory effects | 300 | – | – | – | – | – | – | – |
| C[C@H](NP(=O)(OC[C@H]1S[C@@H](n2ccc(N)nc2=O)[C@@H](F)[C@@H]1O)Oc1ccccc1)C(=O)OCc1ccc(F)cc1 (stereo partly drawn) [Compound C15, (2S)-4-fluorobenzyl 2-(((((2R,3S,4S,5R)-5-(4-amino-2-oxopyrimidin-1(2H)-yl)-4-fluoro-3-hydroxytetrahydrothiophen-2-yl)methoxy)(phenoxy)phosphoryl)amino)propanoate] | excellent inhibitory effects | 1800 | excellent inhibitory effects | 240 | excellent inhibitory effects | 4080 | – | – | – | – | – |
| CC(C)OC(=O)[C@H](C)N[P@](=O)(OC[C@H]1S[C@@H](n2ccc(N)nc2=O)[C@@H](F)[C@@H]1O)Oc1ccc2c(c1)OCO2 [Compound C14, (S)-isopropyl 2-(((S)-(((2R,3S,4S,5R)-5-(4-amino-2-oxopyrimidin-1(2H)-yl)-4-fluoro-3-hydroxytetrahydrothiophen-2-yl)methoxy)(benzo[d][1,3]dioxol-5-yloxy)phosphoryl)amino)propanoate] | excellent inhibitory effects | 2820 | excellent inhibitory effects | 180 | excellent inhibitory effects | 9780 | – | – | – | – | – |
| CC(C)OC(=O)[C@H](C)NP(=O)(OC[C@H]1S[C@@H](n2ccc(N)nc2=O)[C@@H](F)[C@@H]1O)Oc1ccc2ccoc2c1 (stereo partly drawn) [Compound C19, (S)-isopropyl 2-(((((2R,3S,4S,5R)-5-(4-amino-2-oxopyrimidin-1(2H)-yl)-4-fluoro-3-hydroxytetrahydrothiophen-2-yl)methoxy)(benzofuran-6-yloxy)phosphoryl)amino)propanoate] | excellent inhibitory effects | 680 | excellent inhibitory effects | 350 | – | – | – | – | – | – | – |
| CC(C)OC(=O)[C@H](C)NP(=O)(OC[C@H]1S[C@@H](n2ccc(N)nc2=O)[C@@H](F)[C@@H]1O)Oc1ccc(F)c2c1CCO2 (stereo partly drawn) [Compound C17, (S)-isopropyl 2-(((((2R,3S,4S,5R)-5-(4-amino-2-oxopyrimidin-1(2H)-yl)-4-fluoro-3-hydroxytetrahydrothiophen-2-yl)methoxy)((7-fluoro-2,3-dihydrobenzofuran-4-yl)oxy)phosphoryl)amino)propanoate] | excellent inhibitory effects | 3800 | excellent inhibitory effects | 630 | – | – | – | – | – | – | – |
| Nc1ccn([C@@H]2S[C@H](CO)[C@@H](O)[C@@H]2F)c(=O)n1 [Compound A, 1-((2R,3S,4S,5R)-3-fluoro-4-hydroxy-5-(hydroxymethyl)tetrahydrothiophen-2-yl)cytosine, reference compound] | – | – | – | – | – | – | 20.2 | 18.1 | a hunched stance and weight loss | about 77 μmol/kg | symptoms, and two |
